Source: PMC6790288 (The journal of pain : official journal of the American Pain …, 2019)
Where two headings read alike, the source gives them in different places.

Columns and labels:
[1] = cited from earlier work
[2] = tested on: healthy participants; assay: Drug-related adverse events
[3] = tested on: healthy participants; assay: Abuse liability visual analog scales; format: in vivo, human; conditions: trial A, n = 43, 0–100 mm VAS after seventh dose, M (SD)
[4] = tested on: cold-induced pain; assay: Cold pressor test; format: in vivo, human
[5] = 12 participants, 5 days rifampicin, 100 mg oral tramadol; cited from earlier work
[6] = for (+)-M1 Cssmax 90% CI (bioequivalence ratio desmetramadol vs tramadol) / (+)-M1 Cssmin 90% CI (bioequivalence ratio desmetramadol vs tramadol) / (−)-M1 Cssmax 90% CI (bioequivalence ratio desmetramadol vs tramadol) / (−)-M1 Cssmin 90% CI (bioequivalence ratio desmetramadol vs tramadol): bioequivalent if within .80 to 1.25
[7] = tested on: healthy participants; assay: Respiratory rate; conditions: trial B (with paroxetine), n = 60; MPD (SD)
[8] = tested on: pupil diameter; assay: Pupillometry; format: in vivo, human; conditions: trial A; for Pupil diameter, predose: before first dose of segment
[9] = target: μ-opioid receptor; conditions: read-out: μ-opioid receptor affinity (Ki); in vitro, racemic M5; cited from earlier work
[10] = in vivo, po; cited from earlier work
[11] = target: norepinephrine transporter; conditions: read-out: norepinephrine transporter Ki; in vitro functional potency; cited from earlier work
[12] = tested on: serotonin reuptake transporter; conditions: cited from earlier work
[13] = trial A, listed as desmetramadol

Which “lethal M1 blood concentrations exceed therapeutic levels” value [1] does the source give for `CN(C)C[C@H]1CCCC[C@]1(O)c1cccc(O)c1` [Desmetramadol, O-desmethyltramadol] here?
Its value is ≤ 50 fold.

And the Deaths ([2]; trial A)?
The Deaths was 0(0) n (%).

And the “Severe AEs” value ([2]; trial A)?
Its value is 0 (0) n (%).

And the “participants reporting drug-related AEs” value ([2]; trial A)?
The value was 44%.

And the Dizziness ([2]; trial A, all)?
Its Dizziness is 6(14) n (%).

What about the Euphoria ([2]; trial A, all) of the same compound?
Its Euphoria is 0 (0) n (%).

What about the Feel abnormal ([2]; trial A, all) of the same compound?
Its Feel abnormal is 0 (0) n (%).

What about the Feel hot ([2]; trial A, all) of the same compound?
The Feel hot was 0 (0) n (%).

And the Headache ([2]; trial A, all)?
Its Headache is 3 (7) n (%).

What about the Nausea ([2]; trial A, all) of the same compound?
Its Nausea is 8(19) n (%).

What about the Presyncope ([2]; trial A, all) of the same compound?
Its Presyncope is 0 (0) n (%).

And the Pruritus ([2]; trial A, all)?
Its Pruritus is 3 (7) n (%).

And the Somnolence ([2]; trial A, all)?
Its Somnolence is 3 (7) n (%).

What about the Spasticity ([2]; trial A, all) of the same compound?
The Spasticity was 0 (0) n (%).

And the Sweating ([2]; trial A, all)?
The Sweating was 0 (0) n (%).

What about the Vomiting ([2]; trial A, all) of the same compound?
Its Vomiting is 1 (2) n (%).

And the Dizziness ([2]; trial A, male)?
The Dizziness was 6(14) n (%).

And the Euphoria ([2]; trial A, male)?
The Euphoria was 0 (0) n (%).

What about the Feel abnormal ([2]; trial A, male) of the same compound?
Its Feel abnormal is 0 (0) n (%).

What about the Feel hot ([2]; trial A, male) of the same compound?
Its Feel hot is 0 (0) n (%).

And the Headache ([2]; trial A, male)?
The Headache was 3 (7) n (%).

And the Nausea ([2]; trial A, male)?
The Nausea was 8(19) n (%).

What about the Presyncope ([2]; trial A, male) of the same compound?
Its Presyncope is 0 (0) n (%).

And the Pruritus ([2]; trial A, male)?
The Pruritus was 3 (7) n (%).

And the Somnolence ([2]; trial A, male)?
Its Somnolence is 3 (7) n (%).

And the Spasticity ([2]; trial A, male)?
Its Spasticity is 0 (0) n (%).

What about the Sweating ([2]; trial A, male) of the same compound?
Its Sweating is 0 (0) n (%).

And the Vomiting ([2]; trial A, male)?
Its Vomiting is 1 (2) n (%).

What about the “All drug-related AEs” value ([2]; trial A, n = 43 (all male)) of the same compound?
The value was 19 (44) n (%).

What about the Deaths ([2]; trial B) of the same compound?
Its Deaths is 0 (0) n (%).

What about the “Severe AEs” value ([2]; trial B) of the same compound?
The value was 0 (0) n (%).

And the “participants reporting drug-related AEs” value ([2]; trial B (with paroxetine))?
Its value is 67%.

What about the “All drug-related AEs” value ([2]; trial B (with paroxetine), n = 60) of the same compound?
Its value is 40 (67) n (%).

What about the Dizziness ([2]; trial B, all) of the same compound?
Its Dizziness is 12 (20) n (%).

What about the Euphoria ([2]; trial B, all) of the same compound?
The Euphoria was 2 (3) n (%).

And the Feel abnormal ([2]; trial B, all)?
The Feel abnormal was 3 (5) n (%).

And the Feel hot ([2]; trial B, all)?
Its Feel hot is 3 (5) n (%).

What about the Headache ([2]; trial B, all) of the same compound?
The Headache was 10(17) n (%).

And the Nausea ([2]; trial B, all)?
The Nausea was 16(27) n (%).

What about the Presyncope ([2]; trial B, all) of the same compound?
The Presyncope was 6(10) n (%).

And the Pruritus ([2]; trial B, all)?
Its Pruritus is 4 (7) n (%).

And the Somnolence ([2]; trial B, all)?
Its Somnolence is 10(17) n (%).

And the Spasticity ([2]; trial B, all)?
Its Spasticity is 3 (5) n (%).

What about the Sweating ([2]; trial B, all) of the same compound?
The Sweating was 2 (3) n (%).

And the Vomiting ([2]; trial B, all)?
The Vomiting was 9(15) n (%).

What about the Dizziness ([2]; trial B, female) of the same compound?
The Dizziness was 5 (28) n (%).

What about the Euphoria ([2]; trial B, female) of the same compound?
Its Euphoria is 1 (6) n (%).

And the Feel abnormal ([2]; trial B, female)?
The Feel abnormal was 1 (6) n (%).

What about the Feel hot ([2]; trial B, female) of the same compound?
Its Feel hot is 1 (6) n (%).

What about the Headache ([2]; trial B, female) of the same compound?
Its Headache is 6(33) n (%).

What about the Nausea ([2]; trial B, female) of the same compound?
The Nausea was 5 (28) n (%).

What about the Presyncope ([2]; trial B, female) of the same compound?
Its Presyncope is 3(17) n (%).

And the Pruritus ([2]; trial B, female)?
Its Pruritus is 3(17) n (%).

What about the Somnolence ([2]; trial B, female) of the same compound?
The Somnolence was 6(33) n (%).

And the Spasticity ([2]; trial B, female)?
The Spasticity was 0 (0) n (%).

What about the Sweating ([2]; trial B, female) of the same compound?
Its Sweating is 0 (0) n (%).

What about the Vomiting ([2]; trial B, female) of the same compound?
Its Vomiting is 3(17) n (%).

What about the Dizziness ([2]; trial B, male) of the same compound?
The Dizziness was 7(17) n (%).

What about the Euphoria ([2]; trial B, male) of the same compound?
The Euphoria was 1 (2) n (%).

And the Feel abnormal ([2]; trial B, male)?
Its Feel abnormal is 2 (5) n (%).

What about the Feel hot ([2]; trial B, male) of the same compound?
Its Feel hot is 2 (5) n (%).

What about the Headache ([2]; trial B, male) of the same compound?
The Headache was 4(10) n (%).

What about the Nausea ([2]; trial B, male) of the same compound?
The Nausea was 11 (26) n (%).

And the Presyncope ([2]; trial B, male)?
Its Presyncope is 3 (7) n (%).

What about the Pruritus ([2]; trial B, male) of the same compound?
The Pruritus was 1 (2) n (%).

And the Somnolence ([2]; trial B, male)?
Its Somnolence is 4(10) n (%).

And the Spasticity ([2]; trial B, male)?
Its Spasticity is 3 (7) n (%).

And the Sweating ([2]; trial B, male)?
Its Sweating is 2 (5) n (%).

And the Vomiting ([2]; trial B, male)?
Its Vomiting is 6(14) n (%).

What about the Drug liking-disliking [3] of the same compound?
The Drug liking-disliking was 47 (25) mm.

And the “Strength of drug effect” value [3]?
Its value is 29 (28) mm.

What about the Take drug again [3] of the same compound?
The Take drug again was 43 (26) mm.

And the “Strength of drug effect” value ([3]; listed as desmetramadol)?
The value was 29 [28] mm.

What about the “average duration of tolerance to pain” value ([4]; trial A) of the same compound?
Its value is 63 s.

And the “tolerance to pain, mean paired increase relative to placebo” value ([4]; trial A, mean [SE])?
The value was 12.6 [3.8] seconds.

What about the “pain tolerated longer after desmetramadol than after tramadol” value ([4]; trial B (with paroxetine), male participants) of the same compound?
The value was 44%.

What about the “tolerance to pain, mean paired increase relative to placebo” value ([4]; trial B (with paroxetine), male participants, mean [SE]) of the same compound?
Its value is 9.9 [1.9] seconds.

And the “change in paired cold-induced pain scores at 30 seconds compared with placebo” value ([4]; trial B (with paroxetine), male population n = 42, mean [SE])?
The value was “−.75 [.28] 0−10 VAS”.

What about the “decrease of AUC by rifampicin induction” value [5] of the same compound?
Its value is 54%.

And the “increase of M1 formation rate by rifampicin induction” value [5]?
Its value is 12%.

And the “change of (+)-M1 Cssmax, trial B (paroxetine) compared with trial A” value ([6]; steady state plasma)?
Its value is 41%.

What about the “change of (+)-M1 Cssmin, trial B (paroxetine) compared with trial A” value ([6]; steady state plasma) of the same compound?
The value was 46%.

What about the “(−)-M1 Cssmin and Cssmax lower for desmetramadol compared with tramadol” value ([6]; trial A) of the same compound?
The value was 30%.

And the “mean (+)-M1 in the poor metabolizer” value ([6]; trial A, CYP2D6 poor metabolizer)?
Its value is 41 ng/mL.

And the “mean (+)-M1 in the ultrarapid metabolizer” value ([6]; trial A, CYP2D6 ultrarapid metabolizer)?
Its value is 22 ng/mL.

And the “increase of mean desmetramadol (+)-M1 compared with tramadol (+)-M1” value ([6]; trial A, poor metabolizer)?
The value was 650%.

What about the “decrease of mean desmetramadol (+)-M1 compared with tramadol (+)-M1” value ([6]; trial A, ultrarapid metabolizer) of the same compound?
Its value is 40%.

What about the “(+)-M1 Cssmax 90% CI (bioequivalence ratio desmetramadol vs tramadol)” value ([6]; trial A) of the same compound?
The value was “.88–1.13”.

And the “(+)-M1 Cssmin 90% CI (bioequivalence ratio desmetramadol vs tramadol)” value ([6]; trial A)?
Its value is “.85–1.08”.

And the “(−)-M1 Cssmax 90% CI (bioequivalence ratio desmetramadol vs tramadol)” value ([6]; trial A)?
Its value is “.67-.76”.

What about the “(−)-M1 Cssmin 90% CI (bioequivalence ratio desmetramadol vs tramadol)” value ([6]; trial A) of the same compound?
The value was “.69-.76”.

What about the “(+)-M1 Cssmax 90% CI (bioequivalence ratio desmetramadol vs tramadol)” value [6, 13] of the same compound?
The value was “.88 −1.13”.

And the “(+)-M1 Cssmin 90% CI (bioequivalence ratio desmetramadol vs tramadol)” value [6, 13]?
Its value is “.85−1.08”.

And the “(−)-M1 Cssmax 90% CI (bioequivalence ratio desmetramadol vs tramadol)” value [6, 13]?
Its value is “.67 −.76”.

What about the “(−)-M1 Cssmin 90% CI (bioequivalence ratio desmetramadol vs tramadol)” value [6, 13] of the same compound?
The value was “.69−.76”.

And the “desmetramadol (+)-M1 Cssmin and Cssmax exceed corresponding tramadol values” ([6]; trial B (with paroxetine))?
Its value is 3.5 fold.

And the “(+)-M1 Cssmax 90% CI (bioequivalence ratio desmetramadol vs tramadol)” value ([6]; trial B (with paroxetine))?
The value was 3.4–4.3.

What about the “(+)-M1 Cssmin 90% CI (bioequivalence ratio desmetramadol vs tramadol)” value ([6]; trial B (with paroxetine)) of the same compound?
The value was 3.4–4.3.

What about the “(−)-M1 Cssmax 90% CI (bioequivalence ratio desmetramadol vs tramadol)” value ([6]; trial B (with paroxetine)) of the same compound?
The value was “.93–1.07”.

What about the “(−)-M1 Cssmin 90% CI (bioequivalence ratio desmetramadol vs tramadol)” value ([6]; trial B (with paroxetine)) of the same compound?
Its value is “.95–1.09”.

What about the “increase of steady-state (−)-M1 by paroxetine” value ([6]; trial B vs trial A) of the same compound?
Its value is “approximately 15%”.

And the “increase of plasma (+)-M1 by paroxetine” value ([6]; trial B vs trial A, steady state)?
Its value is “approximately 40%”.

What about the “Average postdose respiratory rate, mean paired difference versus placebo” value [7] of the same compound?
The value was “−.30 [.90] min^−1”.

And the “pupil diameter, mean paired reduction compared with placebo” value ([8]; after dosing, mean (SD))?
Its value is −1.1 (.8) mm.

What about the “Pupil diameter, after seventh dose” value ([8]; n = 43, M (SD)) of the same compound?
Its value is 5.1 (1.2) mm.

And the “Pupil diameter, predose” value ([8]; n = 43, M (SD))?
The value was 6.0 (1.1) mm.

And the “Pupil diameter, predose” value ([8]; n = 43, M (SD), listed as desmetramadol)?
Its value is 6.0 [1.1] mm.

With `CNCC1CCCCC1(O)c1cccc(O)c1` (stereo not shown) [M5, O,N-didesmethyltramadol] as the compound, how does the Ki [9] read?
Its Ki is 0.1 µM.

Which lethal oral dose [10] does the source give for `COc1ccc2c3c1O[C@H]1C(=O)CC[C@H]4[C@@H](C2)N(C)CC[C@]314` [Hydrocodone, hydrocodone] here?
Its lethal oral dose is 90 mg.

Which results are given for `CC[C@@H](c1cccc(O)c1)[C@@H](C)CN(C)C` [Tapentadol]?
Ki [11]: 0.48 µM; activity at the serotonin reuptake transporter [12]: no activity

With `COc1ccc2c3c1O[C@H]1C(=O)CC[C@@]4(O)[C@@H](C2)N(C)CC[C@]314` [Oxycodone, oxycodone] as the compound, how does the lethal oral dose [10] read?
The lethal oral dose was 40 mg.
